The IC50 is the point on the concentration scale where inhibition reaches its midpoint.

A value given as a limit tells only on which side of the number the result lay.

Assay [1] has as its system IL-1β release in U937 cells after NLRP3 activation. Put plainly: IC50 determination of IL-1β release inhibition in U937 cells. It counts as cell-based. Particulars: Homo sapiens, U-937; PMA-differentiated U937 cells, LPS priming 5 h, nigericin; average of at least three experiments; read-out: IL-1β IC50 (nM) U937 cells. The protocol: Example 79: IC50 Determination of IL-1β Release Inhibition in U937 Cells The compounds of the present disclosure were tested for their ability to inhibit the IL-1β release in the U937 cells after NLRP3 activation. U937 cells (U-97 CRL 1593.2) were thawed following ATCC's initial culture procedure. […] The growth medium was composed of RPMI1640 medium (Quality Biological 112-040-101), 10% serum (Corning 35-076-CV), Pen/Strep (GIBCO 15140-122), 10 mM Hepes (Quality Biological 118-089-721), 2 mM Glutamax (GIBCO 35050-061), and 100 μg/mL normocin (Invivogen ant-nr)-Differentiating media was prepared by adding Phorbol 12-myristate 13-acetate (PMA) (AdipoGen AG-CN2-0010-M005) to growth medium. A cell suspension was prepared with differentiating media at 500k cells/ml. With an electronic pipet, 200 ul of cell suspension was added to each well (96w white plate Corning 3903) leaving columns 1 and 2 empty. Plates were left in the biosafety cabinet for 15 min and then placed in incubator for 90 hours. Priming media was prepared with assay medium consisting of RPMI 1640 medium, 10 mM Hepes, 2 mM Glutamax and Pen/Strep plus 1 μg/mL LPS (Invivogen tlrl-3pelps). Differentiating media was manually removed and 80 ul of priming media was added to each well with an electronic pipet. The plates were placed in the incubator for 5 hours. […] DMSO). An hour prior to the end of LPS incubation, a separate 96 deep well plate, Plate B, was prepared with 400 μL of assay media per well, then […] of the stock DMSO solution from Plate A was added to each corresponding well. Plate B was covered to avoid media evaporation. In a 50 mL tube, a solution of nigericin in assay media at 50 uM/mL concentration was prepared. To a new 96 deep well plate, Plate C, 200 μL of this nigericin containing media was dispensed to each well and 1 μL of the test compounds from Plate B to each corresponding well was added. Plate C was covered to avoid media evaporation. After 5 hours of priming, all the media from the LPS treated U937 cells was removed manually. To this plate of primed cells, 80 μL/well test compounds from Plate B (assay media+compound) was added in duplicate columns (5 compounds tested per plate). The plate was placed in an incubator for 30 min. […] The plate was placed back in the incubator for 1 hour. At the end of 1 hour, the supernatant from this test plate was transferred to a new 96 well V bottom polypropylene plate which was frozen immediately at -80° C. The plate was transferred to -20° C. the next day and awaited further determination of cytokine IL-Ip level. The release of IL-1β into the cell media was determined by MSD® Multi-Spot Assay System (V-Plex, IL-1B kit, […]-4). Following the manufacture's protocol and using the Alternate Protocol 3, Dilute-In-Plate protocol specifically, the level of IL-IP in the above collected supernatant plate was measured as electrochemiluminescent signals. Using MSD DISCOVERY WORKBENCH® analysis software, the signals were converted to the concentration of IL-1β in each well. The IC50 values of the compounds were calculated using the Graph Pad Prism software based on the IL-1β concentration determined. The detection range of IL-1β using MSD kit was approximately […] (based on various lots of standards purchased from MSD).

Assay [2] relates to IL-1β release in THP-1-ASC-GFP cells after NLRP3 activation. Description: IC50 determination of IL-1β release inhibition in THP-1-ASC-GFP cells. In kind it is cell-based. Particulars: THP1-ASC-GFP; THP-1-ASC-GFP cells, LPS priming 4 h, nigericin; average of at least three experiments; read-out: IL-1β IC50 (nM) THP1 cells. The protocol:
Example 78: IC50 Determination of IL-1β Release Inhibition in THP-1-ASC-GFP Cells The compounds were tested for their ability to inhibit the IL-1β release in the THP-1-ASC-GFP cells after NLRP3 activation. THP1-ASC-GFP cells (Invivogen […] thawed following Invivogen's initial culture procedure. […] The growth medium was composed of RPM1640 medium (Gibco 32404-014), 10% heat inactivated (HI) serum (Gibco A3840102), Pen/Strep (Quality Biologics 118-089-721), 10 mM Hepes (Quality Biologics 118-089-721), 2 mM Glutamax (GIBCO 35050-061), 100 μg/mL normocin (Invivogen ant-nr), 100 μg/mL Zeocin (Invivogen ant-zn). The growth medium was freshly prepared once a week and sterile filtered. Assay medium consisted of RPMI 1640 medium, 10 mM Hepes, 2 mM Glutamax and Pen/Strep. To the assay medium, 1 μg/mL LPS (Invivogen tlrl-3pelps) was added. A cell suspension was prepared with assay medium and LPS at 1.25M cells per mL. With an electronic pipet, 80 μl of cell suspension was added to U bottom 96 well polystyrene plates (VWR 10062-902) leaving columns 1 and 2 empty. The plates were placed in the incubator for 4 hours. […] DMSO). An hour prior to the end of LPS incubation, a separate 96 deep well plate, Plate B, was prepared with 400 μL of assay media per well, then 2 μL of the stock DMSO solution from Plate A was added to each corresponding well. Plate B was covered to avoid media evaporation. In a 50 mL tube, a solution of nigericin in assay media at […] concentration was prepared. To a new 96 deep well plate, Plate C, 200 μL of this nigericin containing media was dispensed to each well and […] of the test compounds from Plate A to each corresponding well was added. Plate C was covered to avoid media evaporation. After 4 hours of priming, all the media from the LPS treated THP-1 cells in the initial U bottom plate was removed manually. To this plate of primed cells, 80 μL/well test compounds from Plate B was added in duplicate columns (5 compounds tested per plate). The plate was placed in an incubator for 30 min. […] The plate was placed back in the incubator for 1 hour. At the end of 1 hour, the supernatant from this test plate was transferred to a new 96 well V bottom polypropylene plate which was frozen immediately at -80° C. The plate was transferred to -20° C. the next day and awaiting further determination of cytokine IL-1β level. The release of IL-1β into the cell media was determined by MSD® Multi-Spot Assay System (V-Plex, IL-1B kit, […]-4). Following the manufacture's protocol and using the Alternate Protocol 3, Dilute-In-Plate protocol specifically, the level of IL-1β in the above collected supernatant plate was measured as electrochemiluminescent signals. Using MSD DISCOVERY WORKBENCH® analysis software, the signals were converted to the concentration of IL-1β in each well. The IC50 values of the compounds were calculated using the Graph Pad Prism software based on the […] concentration determined. The detection range of IL-1β using MSD kit was approximately […] (based on various lots of standards purchased from MSD).

On to `Cc1oc(S(=N)(=O)NC(=O)Nc2c3c(cc4c2CCC4)CCC3)cc1CN(C)CC1(O)CCC1` (centres unmarked) [Example 12, N-((1,2,3,5,6,7-hexahydro-s-indacen-4-yl)carbamoyl)-4-((((1-hydroxycyclobutyl)methyl)(methyl)amino)methyl)-5-methylfuran-2-sulfonimidamide], for which the IC50 in assay [1] and in assay [2] was less than 5 nM throughout.
With `Cc1oc(S(=N)(=O)NC(=O)Nc2c3c(c(F)c4c2CCC4)CCC3)cc1CN(C)CC1(CO)CCC1` (centres unmarked) [Example 13, N-((8-fluoro-1,2,3,5,6,7-hexahydro-s-indacen-4-yl)carbamoyl)-4-((((1-(hydroxymethyl)cyclobutyl)methyl)(methyl)amino)methyl)-5-methylfuran-2-sulfonimidamide], the half-maximal inhibitory concentration (IC50) in assay [1] is 5 to 50 nM; in assay [2], less than 5 nM.
Regarding `Cc1oc(S(=N)(=O)NC(=O)Nc2c3c(c(F)c4c2CCC4)CCC3)cc1CN1CC(O)C1` (centres unmarked) [Example 14, N-((8-fluoro-1,2,3,5,6,7-hexahydro-s-indacen-4-yl)carbamoyl)-4-((3-hydroxyazetidin-1-yl)methyl)-5-methylfuran-2-sulfonimidamide], the IC50 in assay [1] is 5 to 50 nM; in assay [2] it was less than 5 nM.
The matching figures for `CC(C)n1nc(S(=N)(=O)NC(=O)Nc2c3c(cc4c2CCC4)CCC3)cc1CN1CCC[C@@H]1CO` (stereo partly drawn) [Example 20, N-((1,2,3,5,6,7-hexahydro-s-indacen-4-yl)carbamoyl)-5-(((R)-2-(hydroxymethyl)pyrrolidin-1-yl)methyl)-1-isopropyl-1H-pyrazole-3-sulfonimidamide]: 5 to 50 nM and less than 5 nM.
As to `Cn1nc(S(=O)(=O)NC(=O)Nc2c3c(c(F)c4c2CCC4)CCC3)cc1CN1CC[C@@H](O)C1` [Example 61, (R)-N-((8-fluoro-1,2,3,5,6,7-hexahydro-s-indacen-4-yl)carbamoyl)-5-((3-hydroxypyrrolidin-1-yl)methyl)-1-methyl-1H-pyrazole-3-sulfonamide], the concentration for half-maximal inhibition (IC50) in assay [1] and in assay [2] was 50 to 500 nM in each case.
Take `Cc1oc(S(=O)(=O)NC(=O)Nc2c3c(c(F)c4c2CCC4)CCC3)cc1CN1CC[C@@H](O)C1` [Example 39, (R)-N-((8-fluoro-1,2,3,5,6,7-hexahydro-s-indacen-4-yl)carbamoyl)-4-((3-hydroxypyrrolidin-1-yl)methyl)-5-methylfuran-2-sulfonamide]: the half-maximal inhibitory concentration (IC50) is 50 to 500 nM in assay [1] and 5 to 50 nM in assay [2].
As to `Cc1oc(S(=O)(=O)NC(=O)Nc2c3c(c(F)c4c2CCC4)CCC3)cc1CN1CCC[C@@H]1CO` [Example 45, (R)-N-((8-fluoro-1,2,3,5,6,7-hexahydro-s-indacen-4-yl)carbamoyl)-4-((2-(hydroxymethyl)pyrrolidin-1-yl)methyl)-5-methylfuran-2-sulfonamide], the half-maximal inhibitory concentration (IC50) in assay [1] is 5 to 50 nM; in assay [2], less than 5 nM.
On the same counts, the results for `Cn1nc(S(=O)(=O)NC(=O)Nc2c3c(c(F)c4c2CCC4)CCC3)cc1CN1CCC[C@H]1CO` [Example 62, (S)-N-((8-fluoro-1,2,3,5,6,7-hexahydro-s-indacen-4-yl)carbamoyl)-5-((2-(hydroxymethyl)pyrrolidin-1-yl)methyl)-1-methyl-1H-pyrazole-3-sulfonamide] are 5 to 50 nM and 5 to 50 nM.
The matching figures for `Cc1oc(S(=O)(=O)NC(=O)Nc2c3c(c(F)c4c2CCC4)CCC3)cc1CN1C[C@@H](O)[C@@H](F)C1` [Example 42, N-((8-fluoro-1,2,3,5,6,7-hexahydro-s-indacen-4-yl)carbamoyl)-4-(((3S,4R)-3-fluoro-4-hydroxypyrrolidin-1-yl)methyl)-5-methylfuran-2-sulfonamide]: 50 to 500 nM and 5 to 50 nM.
`CN(C(=O)c1coc(S(=N)(=O)NC(=O)Nc2c3c(cc4c2CCC4)CCC3)c1)[C@H]1C[C@H](O)C1` (some centres unmarked) [Example 15, 5-(N-((1,2,3,5,6,7-hexahydro-s-indacen-4-yl)carbamoyl)sulfamidimidoyl)-N-((1r,3r)-3-hydroxycyclobutyl)-N-methylfuran-3-carboxamide]: the 50% inhibitory concentration (IC50) in assay [1] fell in the range of 5 to 50 nM.
Consider `Cc1cc(S(=O)(=O)NC(=O)Nc2c3c(c(F)c4c2CCC4)CCC3)oc1CN1C[C@@H](O)[C@@H](F)C1` [Example 53, N-((8-fluoro-1,2,3,5,6,7-hexahydro-s-indacen-4-yl)carbamoyl)-5-(((38,4R)-3-fluoro-4-hydroxypyrrolidin-1-yl)methyl)-4-methylfuran-2-sulfonamide], for which the concentration for half-maximal inhibition (IC50) in assay [1] lay within 5 to 50 nM.
As to `CN(C(=O)c1coc(S(=N)(=O)NC(=O)Nc2c3c(cc4c2CCC4)CCC3)c1)C1CNC1` (centres unmarked) [Example 17, N-(azetidin-3-yl)-5-(N-((1,2,3,5,6,7-hexahydro-s-indacen-4-yl)carbamoyl)sulfamidimidoyl)-N-methylfuran-3-carboxamide], in assay [1], the half-maximal inhibitory concentration (IC50) is 50 to 500 nM.
Still for that read-out and setting: as for `Cc1oc(S(=O)(=O)NC(=O)Nc2c3c(c(F)c4c2CCC4)CCC3)cc1CN1C[C@@H](F)[C@@H](O)C1` [Example 40, N-((8-fluoro-1,2,3,5,6,7-hexahydro-s-indacen-4-yl)carbamoyl)-4-(((3R,4S)-3-fluoro-4-hydroxypyrrolidin-1-yl)methyl)-5-methylfuran-2-sulfonamide], the figure is 5 to 50 nM.
With `CC(C)n1nc(S(=O)(=O)NC(=O)Nc2c3c(c(F)c4c2CCC4)CCC3)cc1CN(C)CC1(O)CCC1` [Example 66, N-((8-fluoro-1,2,3,5,6,7-hexahydro-s-indacen-4-yl)carbamoyl)-5-((((1-hydroxycyclobutyl)methyl)(methyl)amino)methyl)-1-isopropyl-1H-pyrazole-3-sulfonamide], the IC50 in assay [1] is less than 5 nM.

Values taken from US20250388568A1, “NLRP3 INHIBITORS” (Kodiak Sciences Inc., priority 2022, published 2025).
